# Measurements reported in patent US9029409B2, “Isoxazolines as therapeutic agents” (AbbVie Inc., priority 2011, dated 2015).
# Molecular target: T1, recombinant human MMP13 catalytic domain (CD) (Homo sapiens, UniProt P45452)
# T1 construct: catalytic domain (CD) construct encompassing residues 20-274 (SWISS-PROT P45452); made in house
# Experiment: MMP-13 catalytic domain FRET enzyme assay
# Type: biochemical
# Conditions: recombinant human MMP-13 catalytic domain
# Summary of the method: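 Human MMP-13 catalytic domain (res 20-274, E. coli-expressed), 0.4 nM, cleaving FRET peptide (0.25 μM) in Tris pH 7.5/CaCl2/NaCl/Brij 35, 5% DMSO, 60 min RT; EDTA-quenched, fluorescence 485/535 nm. IC50 from sigmoidal fit of % inhibition. Some compounds also run on APMA-activated full-length MMP13 (2 nM).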
row,SMILES,IC50 [nM]
1,Cc1nc(C(=O)NCc2ccc(F)cc2)cc(C2=NOC([C@H]3CC[C@H](NC(=O)[C@H](C)O)CC3)C2)n1 (some centres unmarked),10 to 100
2,COc1cc(CNC(=O)c2cc(C3=NOC(C4CCN(C(=O)CN(C)C)CC4)C3)nc(C)n2)ccc1F (centres unmarked),10 to 100
3,COc1cc(CNC(=O)c2cc(C3=NOC([C@H]4CC[C@H](NC(=O)N(C)CC(O)CO)CC4)C3)nc(C)n2)ccc1F (some centres unmarked),< 10
4,CC(=O)NC[C@@H]1CO[C@@H]([C@@H]2CC(c3cc(C(=O)NCc4ccc(F)c(Cl)c4)nc(C)n3)=NO2)CO1,< 10
5,CNCC(C)N[C@H]1CC[C@H](C2CC(c3cc(C(=O)NCc4ccc(F)c(OC)c4)nc(C)n3)=NO2)CC1 (some centres unmarked),10 to 100
6,COc1ccc(CNC(=O)c2cc(C3=NOC(C)(c4ccc(CO)cc4)C3)nc(C)n2)cc1 (centres unmarked),100 to 1000
7,Cc1nc(C(=O)NCc2ccc(F)c(Cl)c2)cc(C2=NOC(c3ccc(=O)n(C)c3)C2)n1 (centres unmarked),< 10
8,Cc1nc(C(=O)NCc2ccc3c(c2)NC(=O)CO3)cc(C2=NO[C@H]([C@H]3CC[C@H](NC(=O)[C@H](C)O)CC3)C2)n1,< 10
9,Cc1nc(C(=O)NCc2ccc(F)c(C)c2)cc(C2=NO[C@H]([C@H]3CO[C@H](CS(C)(=O)=O)CO3)C2)n1,< 10
10,COc1cc(CNC(=O)c2cc(C3=NOC(C4CCN(C(=O)N(C)C)CC4)C3)nc(C)n2)ccc1F (centres unmarked) [drawing 876],< 10
11,COc1cc(CNC(=O)c2cc(C3=NOC(C4CCN(C(=O)CC#N)CC4)C3)nc(C)n2)ccc1F (centres unmarked) [drawing 1065],10 to 100
12,CC(=O)N[C@H]1CC[C@H](C2CC(c3cc(C(=O)NCc4ccc5c(c4)NC(=O)CO5)nc(C)n3)=NO2)CC1 (some centres unmarked),< 10
13,COc1cc(CNC(=O)c2cc(C3=NOC(C4CCN(C(C)=O)CC4)C3)nc(C)n2)ccc1F (centres unmarked),10 to 100
14,COc1ccc(C2CC(c3cc(C(=O)NCc4ccc(F)c(OC)c4)nc(C)n3)=NO2)nn1 (centres unmarked),10 to 100
15,COc1cc(CNC(=O)c2cc(C3=NOC(C4CCN(C(=O)CCN(C)C)CC4)C3)nc(C)n2)ccc1F (centres unmarked),10 to 100
16,COc1cc(CNC(=O)c2cc(C3=NOC(CN4CCOCC4)C3)nc(C)n2)ccc1F (centres unmarked),> 1000
17,COc1cc(CNC(=O)c2cc(C3=NOC([C@H]4CC[C@H](CNC(=O)CC#N)CC4)C3)nc(C)n2)ccc1F (some centres unmarked),< 10
18,COc1cc(CNC(=O)c2cc(C3=NO[C@H]([C@@H]4CO[C@@H](C(=O)O)CO4)C3)nc(C)n2)ccc1F,10 to 100
19,COc1cc(CNC(=O)c2cc(C3=NOC(c4ccncc4)C3)nc(C)n2)ccc1F (centres unmarked),< 10
20,COc1cccc(CNC(=O)c2cc(C3=NOC(C4CCN(C(=O)CO)CC4)C3)nc(C)n2)c1 (centres unmarked),10 to 100
21,COc1cc(CNC(=O)c2cc(C3=NOC(C4CCN(S(=O)(=O)c5cn(C)cn5)CC4)C3)nc(C)n2)ccc1F (centres unmarked),< 10
22,COc1cc(CNC(=O)c2cc(C3=NO[C@H]([C@H]4CC[C@H](NC(C)=O)CC4)C3)nc(C)n2)ccc1F [drawing 1031],< 10
23,COc1cc(CNC(=O)c2cc(C3=NOC(C4CCN(C(=O)C(C)C)CC4)C3)nc(C)n2)ccc1F (centres unmarked),10 to 100

row,SMILES,IC50 [nM]
1,Cc1nc(C(=O)NCc2ccc3c(c2)CCO3)cc(C2=NO[C@H]([C@H]3CO[C@H](CO)CO3)C2)n1,10 to 100
2,COc1cc(CNC(=O)c2cc(C3=NOC(CN4CCC(CO)C4)C3)nc(C)n2)ccc1F (centres unmarked),> 1000
3,COc1cc(CNC(=O)c2cc(C3=NOC(c4ccc(C(C)(C)O)cc4)C3)nc(C)n2)ccc1F (centres unmarked),10 to 100
4,COc1ccc(CNC(=O)c2cc(C3=NOC(c4nn[nH]n4)C3)nc(C)n2)cc1 (centres unmarked),> 1000
5,COc1ccc(CNC(=O)c2cc(C3=NOC(C)(c4ccc(OCCO)cc4)C3)nc(C)n2)cc1 (centres unmarked),100 to 1000
6,CNC(=O)c1ccc(C2CC(c3cc(C(=O)NCc4ccc(F)c(OC)c4)nc(C)n3)=NO2)nn1 (centres unmarked),10 to 100
7,COc1ccc(CNC(=O)c2cc(C3=NOC(C)(c4ccccc4)C3)ccn2)cc1 (centres unmarked),> 1000
8,COc1cc(CNC(=O)c2cc(C3=NOC(c4ccc(C(N)=O)cc4)C3)nc(C)n2)ccc1F (centres unmarked),< 10
9,COc1cc(CNC(=O)c2cc(C3=NOC(c4cnccn4)C3)nc(C)n2)ccc1F (centres unmarked),10 to 100
10,COc1cc(CNC(=O)c2cc(C3=NOC(C4CCN(C(=O)CNS(C)(=O)=O)CC4)C3)nc(C)n2)ccc1F (centres unmarked),10 to 100
11,COc1cc(CNC(=O)c2cc(C3=NOC(C4CCN(C(=O)C(C)(C)O)CC4)C3)nc(C)n2)ccc1F (centres unmarked),10 to 100
12,CC(=O)NC[C@@H]1CO[C@@H]([C@@H]2CC(c3cc(C(=O)NCc4ccc(F)c(C)c4)nc(C)n3)=NO2)CO1,< 10
13,Cc1nc(C(=O)NCc2ccc3oc(C)nc3c2)cc(C2=NO[C@H]([C@H]3CO[C@H](CO)CO3)C2)n1,10 to 100
14,COc1ccc(CNC(=O)c2cc(C3=NOC(c4ccc(C(N)=O)cc4)C3)nc(C)n2)cc1 (centres unmarked),< 10
15,COc1ccc(CNC(=O)c2cc(C3=NOC(C4CCN(C(C)=O)CC4)C3)nc(C)n2)cc1 (centres unmarked),100 to 1000
16,COc1ccc(CNC(=O)c2cc(C3=NOC(c4ccc(OC)cc4)C3)nc(C)n2)cc1 (centres unmarked),10 to 100
17,Cc1nc(C(=O)NCc2ccc(F)cc2)cc(C2=NO[C@H]([C@H]3CO[C@@H](CO)CO3)C2)n1,10 to 100
18,COc1cc(CNC(=O)c2cc(C3=NO[C@@H]([C@@H]4CO[C@@H](CO)CO4)C3)nc(C)n2)ccc1F,100 to 1000
19,Cc1nc(C(=O)NCc2ccc(F)cc2)cc(C2=NOC(C3CCN(S(C)(=O)=O)CC3)C2)n1 (centres unmarked),< 10
20,CNC(=O)NC[C@@H]1CO[C@@H]([C@@H]2CC(c3cc(C(=O)NCc4ccc(F)c(OC)c4)nc(C)n3)=NO2)CO1,10 to 100
21,Cc1nc(C(=O)NCc2ccc(F)c(Cl)c2)cc(C2=NOC(c3ccc(C#N)nn3)C2)n1 (centres unmarked),10 to 100
22,COc1cccc(C2CC(c3cc(C(=O)NCc4ccc(F)c(OC)c4)nc(C)n3)=NO2)n1 (centres unmarked),10 to 100
23,COc1cc(CNC(=O)c2cc(C3=NOC(C(=O)N4CCOCC4)C3)nc(C)n2)ccc1F (centres unmarked),> 1000

row,SMILES,IC50 [nM]
1,Cc1nc(C(=O)NCc2ccc(F)c(F)c2)cc(C2=NOC(C3CCN(S(C)(=O)=O)CC3)C2)n1 (centres unmarked),10 to 100
2,COc1cc(CNC(=O)c2cc(C3=NOC([C@H]4CC[C@H](C(=O)NCCO)CC4)C3)nc(C)n2)ccc1F (some centres unmarked),< 10
3,Cc1nc(C(=O)NCc2ccc3c(c2)OCCO3)cc(C2=NO[C@H]([C@H]3CO[C@H](CO)CO3)C2)n1,10 to 100
4,Cc1nc(C(=O)NCc2ccc3c(c2)NC(=O)CC3)cc(C2=NO[C@@H]([C@H]3CO[C@H](CO)CO3)C2)n1,100 to 1000
5,CC(=O)N[C@H]1CC[C@H](C2CC(c3cc(C(=O)NCc4ccn(C)c(=O)c4)nc(C)n3)=NO2)CC1 (some centres unmarked),> 1000
6,COc1cc(CNC(=O)c2cc(C3=NOC(c4ccc(N5CCC(CO)CC5)cc4)C3)nc(C)n2)ccc1F (centres unmarked),10 to 100
7,COc1cc(CNC(=O)c2cc(C3=NOC(c4ccc(=O)n(CCO)c4)C3)nc(C)n2)ccc1F (centres unmarked),10 to 100
8,COc1cc(CNC(=O)c2cc(C3=NOC([C@H]4CC[C@H](NC(=O)N(C)C)CC4)C3)nc(C)n2)ccc1F (some centres unmarked),< 10
9,COc1cc(CNC(=O)c2cc(C3=NOC(c4ccnc(C(N)=O)c4)C3)nc(C)n2)ccc1F (centres unmarked),10 to 100
10,COc1cc(CNC(=O)c2cc(C3=NOC(c4ccccn4)C3)nc(C)n2)ccc1F (centres unmarked),10 to 100
11,CNC(=O)Cn1ccc(C2CC(c3cc(C(=O)NCc4ccc(F)c(OC)c4)nc(C)n3)=NO2)cc1=O (centres unmarked),10 to 100
12,COc1ccc(CNC(=O)c2cc(C3=NOC(c4ccccn4)C3)nc(C)n2)cc1 (centres unmarked),100 to 1000
13,COc1cc(CNC(=O)c2cc(C3=NOC(c4ccc(=O)n(C5CC5)c4)C3)nc(C)n2)ccc1F (centres unmarked),< 10
14,COc1cc(CNC(=O)c2cc(C3=NO[C@H]([C@H]4CO[C@H](C(=O)O)CO4)C3)nc(C)n2)ccc1F,< 10
15,COc1ccc(CNC(=O)c2cc(C3=NOC(c4ccc(OCCO)cc4)C3)nc(C)n2)cc1 (centres unmarked),10 to 100
16,COc1cc(CNC(=O)c2cc(C3=NOC(c4cncnc4)C3)nc(C)n2)ccc1F (centres unmarked),10 to 100
17,Cc1nc(C(=O)NCc2ccc(F)c(C)c2)cc(C2=NO[C@H]([C@H]3CO[C@H](CO)CO3)C2)n1,100 to 1000
18,COc1ccc(CNC(=O)c2cc(C3=NOC(C)(c4ccc(Cl)cc4)C3)ccn2)cc1 (centres unmarked),100 to 1000
19,Cc1nc(C(=O)NCc2ccc3c(c2)NC(=O)CO3)cc(C2=NO[C@@H]([C@H]3CO[C@H](CO)CO3)C2)n1,10 to 100
20,COc1cc(CNC(=O)c2cc(C3=NOC(C4CCN(S(=O)(=O)C5CC5)CC4)C3)nc(C)n2)ccc1F (centres unmarked),10 to 100
21,COc1cc(CNC(=O)c2cc(C3=NO[C@H](c4ccc(=O)n(C5CC5)c4)C3)nc(C)n2)ccc1F,< 10
22,COc1cc(CNC(=O)c2cc(C3=NOC(c4ccc(=O)n(C(C)C)c4)C3)nc(C)n2)ccc1F (centres unmarked),< 10
